Source: patent publication US6287813A, “Antibiotic-based gene regulation system” (Cistronics Cell Technology GmbH, priority 1999, dated 2001)

Key:
[1] = system: CHO cells; experiment: CHO cell morphology, growth and toxicity; type: cell-based, Chinese hamster
Experimental: However, pristinamycin has no influence on expression levels of PSV40 or PCMV -driven SEAP expression constructs (data not shown). […] Similar PI-dependent gene expression using the PIT/PPIR system has also been observed in BHK-21 and HeLa cells (not shown). […] This is the same order of magnitude as tissue concentrations reached in antibiotic therapy. Only much higher PI concentrations (above 50 μg/ml) were toxic for CHO cells.

[2] = molecular target: T1, Pip/PPTR (Streptomyces coelicolor, UniProt Q9ADN3); experiment: Gel retardation assay of Pip/PPTR interaction; type: binding; details: Pip 0.2 pmol titrated with 50 pmol to 0.01 pmol antibiotic
T1 construct: gel retardation with ptr promoter DNA (PPTR) of S. pristinaespiralis
T1 sequence (Q9ADN3 1-252): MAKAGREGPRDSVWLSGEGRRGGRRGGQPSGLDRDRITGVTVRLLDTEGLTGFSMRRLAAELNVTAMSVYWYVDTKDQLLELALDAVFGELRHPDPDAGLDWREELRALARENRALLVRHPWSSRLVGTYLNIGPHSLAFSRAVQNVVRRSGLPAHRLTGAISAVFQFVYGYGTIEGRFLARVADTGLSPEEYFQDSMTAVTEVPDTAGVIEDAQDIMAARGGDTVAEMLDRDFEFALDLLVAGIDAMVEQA
Excerpt: FIG. 1: Gel retardation assay showing Pip/PPTR interaction. PPTR of S. pristinaespiralis contains 3 dyad symmetrical binding sites (lane A; PPTR in the absence of Pip) all of which are saturated at relatively large amounts of purified Pip (0.4 pmol; […]) resulting in a single shifted band. Smaller amounts of Pip (0.02 pmol) presented an intermediate situation in which all possible permutations of site occupancy are represented in three distinct retarded bands (lane C). Pip (0.2 pmol lanes D-M) was titrated with a range of PI from 50 pmol to 0.01 pmol (lanes D-H; D: 50 pmol; E: 10 pmol; F: 1 pmol; G: 0.1 pmol; H: 0.01 pmol). […]
Chinese hamster ovary cells (CHO-K1, ATCC: CCL 61), Baby hamster kidney cells (BHK-21, ATCC: CRL-8544), and HeLa cells (ATCC: CRL-7923) as well as stable cell lines CHO-PIT1, CHO-PIT2, CHO-TWIN195, CHO-TWIN1108 and CHO-PIT1-SEAP were cultured as described before (Fussenegger et al., 1998, Nat. Biotechnol. 16,468-472) in the presence of appropriate antibiotics: G418 400 μg/ml; zeocin 100 μg/ml. […] Transient transfected cells were routinely analyzed after 48 h for GFP or SEAP expression using fluorescence microscopy and p-nitrophenolphosphate-based light absorbance timecourse, respectively, as described before (Fussenegger et al., 1998, Nat. Biotechnol. 16, 468-472; Berger et al., 1988, Gene 66, 1-10 b). […]

pristinamycin I [PI]
Effects on CHO cell morphology and growth ([1]; PI 2 μg/ml): No deleterious effects | PI concentration toxic for CHO cells ([1]; hamster, cho cells): above 50 μg/ml | Release of Pip from PPTR [2]: completely released
